Experiment [1] has as its target Fibroblast growth factor receptor 4 (Homo sapiens) (UniProt P22455). As to conditions: 0.1 uM.
Description: Inhibition of human FGFR4 catalytic domain expressed in baculovirus assessed as substrate phosphorylation using fluorescence-labelled peptides as substrate at 0.1 uM after 90 mins by microfluidic peptide phosphorylation assay
Experiment [2] deals with T1, Serine/threonine-protein kinase Sgk3 (Homo sapiens) (UniProt Q96BR1).
T1 sequence (whole entry): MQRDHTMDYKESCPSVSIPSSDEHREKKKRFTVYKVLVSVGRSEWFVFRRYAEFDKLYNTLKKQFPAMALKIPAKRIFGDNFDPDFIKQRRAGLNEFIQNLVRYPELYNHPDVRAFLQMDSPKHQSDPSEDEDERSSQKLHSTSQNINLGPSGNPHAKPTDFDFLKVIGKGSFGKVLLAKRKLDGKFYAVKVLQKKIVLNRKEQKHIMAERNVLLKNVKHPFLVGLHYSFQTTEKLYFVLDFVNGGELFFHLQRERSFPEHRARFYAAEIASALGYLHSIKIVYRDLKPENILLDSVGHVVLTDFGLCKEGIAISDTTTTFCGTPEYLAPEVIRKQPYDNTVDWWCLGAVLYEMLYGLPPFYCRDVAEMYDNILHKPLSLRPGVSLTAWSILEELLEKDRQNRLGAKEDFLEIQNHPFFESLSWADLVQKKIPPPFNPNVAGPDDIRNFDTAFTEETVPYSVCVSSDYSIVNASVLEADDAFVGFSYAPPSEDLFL
The experiment can be described thus: Inhibition of human full length SGK3 expressed in baculovirus assessed as substrate phosphorylation using fluorescence-labelled peptides as substrate at 0.06 uM after 90 mins by microfluidic peptide phosphorylation assay.

For the next experiment, the species on record is Homo sapiens. The experiment can be described thus: Inhibition of human full length PKA expressed in baculovirus assessed as substrate phosphorylation using fluorescence-labelled peptides as substrate at 9 uM after 90 mins by microfluidic peptide phosphorylation assay.
The target of experiment [3] is T2, Serine/threonine-protein kinase Chk1 (Homo sapiens) (UniProt O14757).
T2 sequence (whole entry): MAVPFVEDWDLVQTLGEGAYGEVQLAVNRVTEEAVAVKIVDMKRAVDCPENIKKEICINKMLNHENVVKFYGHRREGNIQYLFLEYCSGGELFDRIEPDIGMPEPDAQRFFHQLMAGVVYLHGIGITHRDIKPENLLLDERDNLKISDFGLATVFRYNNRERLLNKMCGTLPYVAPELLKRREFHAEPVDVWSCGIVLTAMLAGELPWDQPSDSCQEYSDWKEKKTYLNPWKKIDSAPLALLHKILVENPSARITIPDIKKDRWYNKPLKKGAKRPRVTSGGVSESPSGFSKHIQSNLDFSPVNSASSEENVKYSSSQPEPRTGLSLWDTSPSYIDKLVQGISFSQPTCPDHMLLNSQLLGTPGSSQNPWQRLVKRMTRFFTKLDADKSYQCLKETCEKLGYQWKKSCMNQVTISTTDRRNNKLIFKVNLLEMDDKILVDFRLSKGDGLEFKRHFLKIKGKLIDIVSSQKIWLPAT
The experiment can be described thus: Inhibition of human full length CHK1 expressed in baculovirus assessed as substrate phosphorylation using fluorescence-labelled peptides as substrate at 95 uM after 90 mins by microfluidic peptide phosphorylation assay.

The target in experiment [4] is Mitogen-activated protein kinase 3 (Homo sapiens) (UniProt P27361). The experiment can be described thus: Inhibition of human full length ERK1 expressed in Escherichia coli cell assessed as substrate phosphorylation using fluorescence-labelled peptides as substrate at 95 uM after 90 mins by microfluidic peptide phosphorylation assay.
Experiment [5] deals with Protein kinase C beta type (Homo sapiens) (UniProt P05771). Description: Inhibition of human truncated PKC beta1 expressed in baculovirus assessed as substrate phosphorylation using fluorescence-labelled peptides as substrate at 95 uM after 90 mins by microfluidic peptide phosphorylation assay.
Experiment [6] has as its target T3, Serine/threonine-protein kinase D1 (Homo sapiens) (UniProt Q15139).
T3 sequence (whole entry): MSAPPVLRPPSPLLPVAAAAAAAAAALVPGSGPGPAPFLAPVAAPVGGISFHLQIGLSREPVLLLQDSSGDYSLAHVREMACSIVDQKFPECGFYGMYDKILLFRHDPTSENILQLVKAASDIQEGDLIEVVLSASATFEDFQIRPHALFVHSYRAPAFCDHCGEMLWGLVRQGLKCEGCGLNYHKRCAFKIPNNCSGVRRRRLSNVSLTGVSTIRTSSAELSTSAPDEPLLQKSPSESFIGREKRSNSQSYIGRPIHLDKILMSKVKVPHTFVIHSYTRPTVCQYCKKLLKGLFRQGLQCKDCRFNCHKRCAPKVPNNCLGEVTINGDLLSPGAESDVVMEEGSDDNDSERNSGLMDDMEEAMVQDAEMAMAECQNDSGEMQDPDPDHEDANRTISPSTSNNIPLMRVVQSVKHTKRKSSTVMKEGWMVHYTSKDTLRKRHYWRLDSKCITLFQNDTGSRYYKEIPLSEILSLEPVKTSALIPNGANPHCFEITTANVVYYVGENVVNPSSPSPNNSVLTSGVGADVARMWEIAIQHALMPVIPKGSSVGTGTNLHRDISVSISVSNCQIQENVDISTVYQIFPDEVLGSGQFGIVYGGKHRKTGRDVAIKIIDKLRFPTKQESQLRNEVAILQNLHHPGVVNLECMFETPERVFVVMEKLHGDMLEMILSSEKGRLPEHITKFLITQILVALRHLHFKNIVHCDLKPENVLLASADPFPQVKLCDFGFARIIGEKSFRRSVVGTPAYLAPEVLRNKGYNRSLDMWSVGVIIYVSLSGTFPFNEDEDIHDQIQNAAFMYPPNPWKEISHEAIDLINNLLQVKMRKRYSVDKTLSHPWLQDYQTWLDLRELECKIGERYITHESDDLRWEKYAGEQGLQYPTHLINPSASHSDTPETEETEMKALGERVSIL
Description: Inhibition of human full length PKD1 expressed in baculovirus assessed as substrate phosphorylation using fluorescence-labelled peptides as substrate at 1000 uM after 90 mins by microfluidic peptide phosphorylation assay.

Experiment [7] concerns the target T4, Aurora kinase C (Homo sapiens) (UniProt Q9UQB9).
T4 sequence (whole entry): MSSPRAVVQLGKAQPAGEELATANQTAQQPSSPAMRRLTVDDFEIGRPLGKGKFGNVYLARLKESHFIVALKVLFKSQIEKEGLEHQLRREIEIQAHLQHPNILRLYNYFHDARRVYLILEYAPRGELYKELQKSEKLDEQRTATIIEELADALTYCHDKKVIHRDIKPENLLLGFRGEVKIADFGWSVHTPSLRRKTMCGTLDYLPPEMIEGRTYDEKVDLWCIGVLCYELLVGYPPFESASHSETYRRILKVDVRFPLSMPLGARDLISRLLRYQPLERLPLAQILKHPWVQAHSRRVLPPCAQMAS
The experiment can be described thus: Inhibition of human full length AurC expressed in baculovirus assessed as substrate phosphorylation using fluorescence-labelled peptides as substrate at […] after 90 mins by microfluidic peptide phosphorylation assay.

Protein kinase C beta type (Homo sapiens), sequence (P05771 2-671 limits assumed): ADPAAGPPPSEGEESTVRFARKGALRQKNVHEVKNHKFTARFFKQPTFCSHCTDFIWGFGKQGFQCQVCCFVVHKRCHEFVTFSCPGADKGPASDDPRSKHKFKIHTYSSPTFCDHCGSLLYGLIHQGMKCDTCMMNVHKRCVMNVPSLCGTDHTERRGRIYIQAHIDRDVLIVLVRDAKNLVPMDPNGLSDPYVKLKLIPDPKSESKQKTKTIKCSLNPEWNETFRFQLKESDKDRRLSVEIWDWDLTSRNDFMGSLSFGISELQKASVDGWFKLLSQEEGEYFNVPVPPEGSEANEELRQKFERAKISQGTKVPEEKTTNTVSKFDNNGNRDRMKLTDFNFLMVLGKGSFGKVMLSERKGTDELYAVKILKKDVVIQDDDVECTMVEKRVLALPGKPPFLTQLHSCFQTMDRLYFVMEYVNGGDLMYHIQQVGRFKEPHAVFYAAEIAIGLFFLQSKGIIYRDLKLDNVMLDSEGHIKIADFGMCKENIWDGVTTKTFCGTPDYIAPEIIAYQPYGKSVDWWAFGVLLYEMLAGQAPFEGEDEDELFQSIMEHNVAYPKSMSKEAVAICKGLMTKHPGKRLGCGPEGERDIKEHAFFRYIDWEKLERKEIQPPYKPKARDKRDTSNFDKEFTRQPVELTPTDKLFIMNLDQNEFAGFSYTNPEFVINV
Mitogen-activated protein kinase 3 (Homo sapiens), sequence (P27361 whole entry, the tested form may be a part): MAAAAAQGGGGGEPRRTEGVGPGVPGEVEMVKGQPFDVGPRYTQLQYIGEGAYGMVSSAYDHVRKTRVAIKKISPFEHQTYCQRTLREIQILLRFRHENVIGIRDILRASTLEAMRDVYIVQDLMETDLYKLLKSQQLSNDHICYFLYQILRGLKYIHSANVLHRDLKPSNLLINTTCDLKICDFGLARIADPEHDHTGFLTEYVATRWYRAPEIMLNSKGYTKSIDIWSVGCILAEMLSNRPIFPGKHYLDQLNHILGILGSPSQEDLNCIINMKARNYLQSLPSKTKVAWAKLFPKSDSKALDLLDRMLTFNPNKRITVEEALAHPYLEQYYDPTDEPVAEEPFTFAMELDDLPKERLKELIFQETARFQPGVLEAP
Fibroblast growth factor receptor 4 (Homo sapiens), sequence (P22455 22-802 limits assumed): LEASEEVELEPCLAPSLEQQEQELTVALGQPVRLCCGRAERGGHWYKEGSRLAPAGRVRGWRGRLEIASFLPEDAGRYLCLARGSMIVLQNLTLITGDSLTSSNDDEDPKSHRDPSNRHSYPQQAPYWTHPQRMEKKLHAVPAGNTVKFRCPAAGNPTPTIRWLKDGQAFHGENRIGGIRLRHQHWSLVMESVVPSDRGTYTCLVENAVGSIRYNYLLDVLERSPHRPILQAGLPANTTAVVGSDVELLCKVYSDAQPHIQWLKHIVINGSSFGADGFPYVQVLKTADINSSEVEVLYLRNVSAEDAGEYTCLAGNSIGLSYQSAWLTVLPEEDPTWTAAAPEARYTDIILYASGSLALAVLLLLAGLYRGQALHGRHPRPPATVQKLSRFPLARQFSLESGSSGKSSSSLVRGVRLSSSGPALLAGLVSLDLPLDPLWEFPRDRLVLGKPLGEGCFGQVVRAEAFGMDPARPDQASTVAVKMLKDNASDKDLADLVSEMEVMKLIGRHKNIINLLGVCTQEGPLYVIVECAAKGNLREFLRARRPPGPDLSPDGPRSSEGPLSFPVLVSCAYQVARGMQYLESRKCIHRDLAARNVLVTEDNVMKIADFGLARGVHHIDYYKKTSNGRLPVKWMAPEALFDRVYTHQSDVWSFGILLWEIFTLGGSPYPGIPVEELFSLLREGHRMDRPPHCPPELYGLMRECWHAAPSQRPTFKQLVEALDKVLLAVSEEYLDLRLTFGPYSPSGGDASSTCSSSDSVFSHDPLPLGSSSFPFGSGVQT

What is called inhibition is the drop in the measured response relative to a control, in per cent. In experiment [1], `C[C@H](CN(C)C)Oc1nc(Nc2cc3cccc(Cl)c3cn2)cnc1C#N` registered an inhibition of 0%.

As for `NC1(Cc2ccc(Cl)cc2)CCN(c2ncnc3[nH]ccc23)CC1`, in experiment [2], the inhibition is 42.5%.

In the case of `NCC1CN(c2ncnc3[nH]c4cnccc4c23)CCO1` (stereo not drawn), the inhibition in the experiment filed under Homo sapiens was determined as 33.5%.

For the compound `NCCc1ccc(-c2ncnc3[nH]cnc23)cc1`, the figures for the inhibition in experiment [3], in experiment [4] and in experiment [5] were 75.5%, 59% and 77%, respectively.

Take `c1cnc2[nH]ccc2c1`: in experiment [6], the inhibition amounted to 54%.

Turning to `COC(=O)c1cnc(Nc2cnc(C#N)cn2)cc1NCC1CCNCC1`, in experiment [7], the inhibition was 7.5%.

The record behind these values is ChEMBL document CHEMBL3132769, “Fragment growing to retain or alter the selectivity of anchored kinase hinge-binding fragments” (Medchemcomm, 2014).
